Like-named read-outs stand apart in the source and are kept apart here.
Legend:
[1] = Mouse CNS exposure measurement (plasma, CSF, brain); assay type: in vivo, male C57BL/6J mice; conditions: male, C57BL/6J; for concentration at 100 min: PO 5 mg/kg; for concentration at 60 min: in vivo, sc, 1 mg/kg, SC 1 mg/kg
Procedure: These rats were typically about 6-8 weeks old, weighing 200 g to 300 g. Animals were fasted overnight and free access to food 4 hours after dosing. A required volume of vehicle was added to reach the target concentration of the test article and vehicle component to prepare for the dosing. The dosing vehicle was PEG400 or 30% PEG400 in saline for IV, or 0.5% methylcellulose in water for PO. For IV dosing, the animals were administered intravenously via tail vein. For PO dosing, the animals were administered via oral gavage. After dosing, blood sample was collected (˜0.2 mL per time point) through jugular vein or heart puncture. Blood of each sample was transferred into plastic micro centrifuge tubes containing EDTA-K2. Collection tubes with blood samples and anticoagulant were inverted several times for proper mixing of the tube contents and then placed on wet ice. The blood samples were centrifuged at 2000 g for 5 minutes at 4° C. to obtain plasma which was stored in a freezer at −75±15° C. prior to analysis. Samples were analyzed using LC-MS/MS. WinNonlin were used for pharmacokinetic calculations.
For CSF sampling, after anesthesia, the foramen magnum was exposed, and a syringe was used with a venoclysis needle to sample the CSF. The CSF samples were stored in polypropylene tubes, then stored in a freezer at −75±15° C. prior to analysis.
For brain sampling, the rats were fully exsanguinated by using a risen of carbon dioxide prior to brain collection. Brain samples were then collected at adopted time point, quick frozen and kept at −75±15° C. All brain samples were weighted and homogenated with PBS by brain weight (g) to PBS volume (mL) ratio 1:3 before analysis. The actual concentration is the detected value multiplied by the dilution factor.
These mice were typically about 6-8 weeks old, weighing 20 g to 30 g. Animals were free access to food before dosing. Sample amount was ˜0.03 mL per time point and sample site was dorsal metatarsal or heart puncture.

MDR1 = test: MDCK-MDR1 permeability assay; assay type: in vitro ADME; conditions: dog, MDCK-MDR1, pH 7.4; Papp(B-A)/Papp(A-B)
Procedure: (§1) Preparation of MDCK-MDR1 Cells. Cell culture medium of was added to each well of the Transwell insert (50 μL) and reservoir (25 mL). The HTS transwell plates were then incubated at 37° C., 5% CO2 for 1 hour before cell seeding. MDCK-MDR1 cells were diluted to 1.56×10^6 cells/mL with culture medium and 50 μL of cell suspension were dispensed into the filter well of the 96-well HTS Transwell plate. Cells were cultivated for 4-8 days in a cell culture incubator at 37° C., 5% CO2, 95% relative humidity. Cell culture medium was replaced every other day, beginning no later than 24 hours after initial plating.
(§2) Preparation of Stock Solutions. 10 mM stock solutions of test compounds were prepared in DMSO. The stock solutions of positive controls were prepared in DMSO at the concentration of 10 mM. Metoprolol, prazosin and imatinib were used as control compounds in this assay.
(§3) Assessment of Cell Monolayer Integrity. Medium was removed from the reservoir and each Transwell insert and replaced with prewarmed fresh culture medium. Transepithelial electrical resistance (TEER) across the monolayer was measured using Millicell Epithelial Volt-Ohm measuring system (Millipore, USA). The Plate was returned to the incubator once the measurement was done. TEER value should be greater than 42 ohm·cm2, which indicates the well-qualified MDCK-MDR1 monolayer. The TEER value was calculated according to the following equation: TEER measurement (ohms)×Area of membrane(cm^2)=TEER value(ohm·cm^2)
(§4) Assay Procedures. The MDCK-MDR1 plate was removed from the incubator and washed twice with pre-warmed HBSS (10 mM HEPES, pH 7.4), and then incubated at 37° C. for 30 minutes. The stock solutions of test compounds and controls were diluted in DMSO to get 1 mM solutions and then diluted with HBSS (10 mM HEPES, pH 7.4) to get 5 μM working solutions. The final concentration of DMSO in the incubation system was 0.5%.
(§5) To determine the rate of drug transport in the apical to basolateral direction, 125 μL of 5 μM working solution of test compound and control compound were added to the Transwell insert (apical compartment), and transfer 50 μL sample (DO sample) immediately from the apical compartment to a new 96-well plate. The wells in the receiver plate (basolateral compartment) were filled with 235 μL of HBSS (10 mM HEPES, pH 7.4). The assay was performed in duplicate.
(§6) To determine the rate of drug transport in the basolateral to apical direction, 285 μL of 5 μM working solution of test compound and control compound were to the receiver plate wells (basolateral compartment), and transfer 50 μL sample (DO sample) immediately from the basolateral compartment to a new 96-well plate. The wells in the Transwell insert (apical compartment) were filled with 75 μL of HBSS (10 mM HEPES, pH 7.4). The plates were incubated at 37° C. for 2 hours. At the end of the incubation, 50 μL samples from donor sides (apical compartment for Ap→Bl flux, and basolateral compartment for Bl→Ap) and receiver sides (basolateral compartment for Ap→Bl flux, and apical compartment for Bl→Ap) were transferred to wells of a new 96-well plate, followed by the addition of 4 volume of cold methanol containing appropriate internal standards (IS). Samples were Vortexed for 5 minutes and then centrifuged at 3,220 g for 40 minutes. An aliquot of 100 μL of the supernatant was mixed with an appropriate volume of ultra-pure water before LC-MS/MS analysis.
(§7) To determine the Lucifer Yellow leakage after 2 hour transport period, stock solution of Lucifer yellow was prepared in DMSO and diluted with HBSS (10 mM HEPES, pH 7.4) to reach a final concentration of 100 μM. Lucifer yellow solution (100 μL) was added to each Transwell insert (apical compartment), followed by filling the wells in the receiver plate (basolateral compartment) with 300 μL of HBSS (10 mM HEPES, pH 7.4). […]

[2] = MDCK-MDR1 permeability assay; assay type: in vitro ADME; conditions: dog, MDCK-MDR1, pH 7.4, 5 μM, 2 hours; for Papp A→B at 2 h, 5 μM: apical to basolateral; for Papp B→A at 2 h, 5 μM: basolateral to apical
Procedure: as §1, §2, §3, §4, §5, §6, §7

Work on `CC(C)(C)NC[C@H](O)c1cccc(C#N)n1` [Compound 03-5, (S)-6-(2-(tert-butylamino)-1-hydroxyethyl)picolinonitrile] yielded a concentration at 100 min ([1]; CSF, read-out: Concentration, CSF) of 621 ng/mL, a concentration at 100 min ([1]; brain, read-out: Concentration, Brain) of 989 ng/g and a concentration at 100 min ([1]; plasma, read-out: Concentration, Plasma) of 1340 ng/mL. It also gave an efflux ratio at 2 h, 5 μM (MDR1) of 1.06, a Papp A→B at 2 h, 5 μM [2] of 15.2 ×10⁻⁶ cm/s and a Papp B→A at 2 h, 5 μM [2] of 16.2 ×10⁻⁶ cm/s.

Compound `CC(C)(C)NC[C@H](O)c1cccc(C(F)(F)F)n1` [Compound 03-3] has a concentration at 100 min ([1]; CSF, po, 5 mg/kg, read-out: Concentration, CSF) of 302 ng/mL, a concentration at 100 min ([1]; brain, po, 5 mg/kg, read-out: Concentration, Brain) of 988 ng/g and a concentration at 100 min ([1]; plasma, po, 5 mg/kg, read-out: Concentration, Plasma) of 557 ng/mL. For the same compound, the efflux ratio at 2 h, 5 μM (MDR1) was 0.78, the Papp A→B at 2 h, 5 μM [2] was 25.3 ×10⁻⁶ cm/s and the Papp B→A at 2 h, 5 μM [2] was 19.8 ×10⁻⁶ cm/s.

Work on `Cc1ncccc1[C@@H](O)CNC(C)(C)C` [Compound 03-115] yielded a concentration at 60 min ([1]; read-out: Concentration, Brain) of 280 ng/g, a concentration at 60 min ([1]; read-out: Concentration, CSF) of 157 ng/mL and a concentration at 60 min ([1]; read-out: Concentration, Plasma) of 270 ng/mL. For the same compound, the efflux ratio at 2 h, 5 μM (MDR1) was 1.58, the Papp A→B at 2 h, 5 μM [2] was 6.96 ×10⁻⁶ cm/s and the Papp B→A at 2 h, 5 μM [2] was 11 ×10⁻⁶ cm/s.
